Data published in ChEMBL document CHEMBL2413070, “Histone Deacetylase 4 (HDAC4) Inhibitors: A Promising Treatment for Huntington's Disease” (ACS Med Chem Lett, 2013).
pIC50: −log10 of the molar value.

Experiments:
[1] = target: T1, Protein deacetylase HDAC6 (Homo sapiens, UniProt Q9UBN7); assay: Inhibition of recombinant full length human HDAC-6 expressed in baculovirus expression system using acetyl-Gly-Ala-Lys(acetyl)-AMC as substrate after 2 hrs by fluorescence microplate reader analysis
T1 sequence (Q9UBN7 whole entry): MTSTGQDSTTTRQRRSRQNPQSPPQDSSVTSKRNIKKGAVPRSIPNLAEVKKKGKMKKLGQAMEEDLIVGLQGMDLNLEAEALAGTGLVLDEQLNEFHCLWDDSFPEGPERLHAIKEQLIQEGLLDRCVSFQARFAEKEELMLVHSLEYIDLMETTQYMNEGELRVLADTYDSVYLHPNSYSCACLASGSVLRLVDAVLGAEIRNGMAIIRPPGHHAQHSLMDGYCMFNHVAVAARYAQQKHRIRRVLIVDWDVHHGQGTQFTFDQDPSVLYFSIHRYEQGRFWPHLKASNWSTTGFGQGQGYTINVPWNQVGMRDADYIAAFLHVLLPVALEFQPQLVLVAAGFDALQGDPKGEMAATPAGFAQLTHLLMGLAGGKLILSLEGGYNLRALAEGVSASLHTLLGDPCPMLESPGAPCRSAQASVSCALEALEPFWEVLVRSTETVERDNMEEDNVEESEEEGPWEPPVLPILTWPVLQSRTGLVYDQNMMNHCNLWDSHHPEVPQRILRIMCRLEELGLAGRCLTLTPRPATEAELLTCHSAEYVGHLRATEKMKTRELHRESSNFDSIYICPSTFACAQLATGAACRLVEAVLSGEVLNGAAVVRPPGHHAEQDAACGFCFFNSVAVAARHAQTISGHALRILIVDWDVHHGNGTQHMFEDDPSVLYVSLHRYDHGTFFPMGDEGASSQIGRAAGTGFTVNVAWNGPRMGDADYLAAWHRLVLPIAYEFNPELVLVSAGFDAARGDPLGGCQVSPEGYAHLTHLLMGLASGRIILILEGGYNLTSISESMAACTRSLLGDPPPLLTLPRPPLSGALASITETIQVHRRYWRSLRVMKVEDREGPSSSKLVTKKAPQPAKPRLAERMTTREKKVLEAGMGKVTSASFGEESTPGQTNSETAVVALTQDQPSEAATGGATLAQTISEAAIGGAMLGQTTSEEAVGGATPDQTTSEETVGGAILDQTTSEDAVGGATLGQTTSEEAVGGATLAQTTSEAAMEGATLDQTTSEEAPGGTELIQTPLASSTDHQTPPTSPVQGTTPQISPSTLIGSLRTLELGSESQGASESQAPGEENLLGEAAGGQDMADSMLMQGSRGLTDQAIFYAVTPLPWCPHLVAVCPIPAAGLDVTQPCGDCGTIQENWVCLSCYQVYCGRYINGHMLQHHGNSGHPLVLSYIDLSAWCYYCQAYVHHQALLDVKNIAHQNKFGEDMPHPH

Histone deacetylase 1 = Histone deacetylase 1 (Homo sapiens, UniProt Q13547); assay: Inhibition of recombinant full length human HDAC-1 expressed in baculovirus expression system using acetyl-Gly-Ala-Lys(acetyl)-AMC as substrate after 2 hrs by fluorescence microplate reader analysis
Chain of Histone deacetylase 1 (Q13547 whole entry): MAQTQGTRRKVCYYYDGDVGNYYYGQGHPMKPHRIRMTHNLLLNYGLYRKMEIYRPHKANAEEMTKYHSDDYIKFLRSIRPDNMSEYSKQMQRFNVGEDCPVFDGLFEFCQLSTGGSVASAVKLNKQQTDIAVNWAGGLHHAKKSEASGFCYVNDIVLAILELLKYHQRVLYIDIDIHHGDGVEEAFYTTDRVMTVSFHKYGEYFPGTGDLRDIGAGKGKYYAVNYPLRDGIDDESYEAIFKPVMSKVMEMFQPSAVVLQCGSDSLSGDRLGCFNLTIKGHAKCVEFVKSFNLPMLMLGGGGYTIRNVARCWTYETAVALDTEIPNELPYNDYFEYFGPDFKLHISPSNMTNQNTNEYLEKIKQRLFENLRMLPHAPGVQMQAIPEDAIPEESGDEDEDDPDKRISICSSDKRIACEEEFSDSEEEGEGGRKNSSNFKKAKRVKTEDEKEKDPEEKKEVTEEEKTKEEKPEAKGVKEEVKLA

| pIC50 [1] | pIC50 (Histone deacetylase 1) | Structure (SMILES) |
| --- | --- | --- |
| < 5.00 | < 5.00 | C[C@H](CN(C)Cc1ccccc1)NC(=O)c1ccc(-c2noc(C(F)(F)F)n2)nc1 |
| < 5.00 | < 5.00 | CCN(CC)C[C@@H](C)NC(=O)c1ccc(-c2noc(C(F)(F)F)n2)nc1 |
